In US8841301B2, “Selective NR2B antagonists” (Bristol-Myers Squibb Company, priority 2011, dated 2014):

molecular target: hNR2B (Homo sapiens, UniProt Q05586+Q13224); experiment: Electrophysiology NMDA receptor experiments: two electrode voltage-clamp in Xenopus laevis oocytes expressing GluN1/GluN2 subunits; type: cell-based; details: oocytes voltage clamped at −40 mV; 50 μM glutamate, 30 μM glycine; read-out: Rating (hNR2B IC50)
Description: Electrophysiology NMDA Receptor Experiments.
Stage V and VI oocytes were surgically removed from the ovaries of large, well-fed and healthy Xenopus laevis anesthetized with 3-amino-benzoic acid ethyl ester (3 gm/l). Clusters of isolated oocytes were incubated with 292 U/ml Worthington (Freehold, N.J.) type IV collagenase or 1.3 mg/ml collagenase (Life Technologies, Gaithersburg, Md.; 17018-029) for 2 hr in Ca^2+-free solution comprised of (in mM) 115 NaCl, 2.5 KCl, and 10 HEPES, pH 7.5, with slow agitation to remove the follicular cell layer. Oocytes were then washed in the same solution supplemented with 1.8 mM CaCl2 and maintained in Barth's solution comprised of (in mM): 88 NaCl, 1 KCl, 2.4 NaHCO3, 10 HEPES, 0.82 MgSO4, 0.33 Ca(NO3)2, and 0.91 CaCl2 and supplemented with 100 μg/ml gentamycin, 10 μg/ml streptomycin, and 10 μg/ml penicillin. Oocytes were manually defolliculated and injected within 24 hrs of isolation with 3-5 ng of human GluN1 subunit cRNA and 7-10 ng of human GluN2 cRNA subunit in a 50 nl volume, and incubated in Barth's solution at 18° C. for 2-7 d. Glass injection pipettes had tip sizes ranging from 10-20 microns, and were backfilled with mineral oil. cRNA was synthesized from linearized template cDNA for rat glutamate receptor subunits according to manufacturer specifications (Ambion).
Two electrode voltage-clamp recordings were made 2-7 days post-injection. Oocytes were placed in a dual-track plexiglass recording chamber with a single perfusion line that splits in a Y-configuration to perfuse two oocytes. Dual recordings were made at room temperature (23° C.) using two Warner OC725B two-electrode voltage clamp amplifiers, arranged as recommended by the manufacturer. Glass microelectrodes (1-10 Megaohms) were filled with 300 mM KCl (voltage electrode) or 3 M KCl (current electrode). The bath clamps communicated across silver chloride wires placed into each side of the recording chamber, both of which were assumed to be at a reference potential of 0 mV. Oocytes were perfused with a solution comprised of (in mM) 90 NaCl, 1 KCl, 10 HEPES, […] and 0.5 BaCl2; pH 7.4, adjusted by addition of NaOH. Oocytes were recorded under voltage clamp at −40 mV. Final concentrations for glutamate and glycine were 50 μM and 30 μM, respectively. Concentration-response curves for experimental compounds were obtained by applying in successive fashion maximal glutamate/glycine, followed by glutamate/glycine plus variable concentrations of experimental compounds. Dose response curves consisting of four to eight concentrations were obtained in this manner. The baseline leak current at −40 mV was measured before and after recording, and the full recording linearly corrected for any change in leak current. The level of inhibition by applied experimental compounds was expressed as a percent of the initial glutamate response, and averaged together across oocytes from multiple experiments. Results were pooled, and the average percent responses at antagonist concentrations were fit by the equation, Percent Response=(100−minimum)/(1+([conc]/IC50)^nH)+minimum where minimum is the residual percent response in saturating concentration of the experimental compounds, IC50 is the concentration of antagonist that causes half of the achievable inhibition, and nH is a slope factor describing steepness of the inhibition curve. […]
For NMDA receptor subtype selectivity experiments human GluN1/GluN2A, GluN1/GluN2C, and GluN1/GluN2D cRNAs were expressed in Xenopus laevis as described above. Here, 10 μM concentrations of the antagonist was perfused with 50 μM glutamate and 30 μM glycine onto the oocyte for two min and the remaining current in the presence of the antagonist was compared to the maximal current obtained with 50 μM glutamate and 30 μM glycine alone (defined as 100%). When IC50 determinations were made against other NMDA receptor subtypes the protocol as described above was followed. […]

Chain of hNR2B (Q13224 27-1484, other chains not shown): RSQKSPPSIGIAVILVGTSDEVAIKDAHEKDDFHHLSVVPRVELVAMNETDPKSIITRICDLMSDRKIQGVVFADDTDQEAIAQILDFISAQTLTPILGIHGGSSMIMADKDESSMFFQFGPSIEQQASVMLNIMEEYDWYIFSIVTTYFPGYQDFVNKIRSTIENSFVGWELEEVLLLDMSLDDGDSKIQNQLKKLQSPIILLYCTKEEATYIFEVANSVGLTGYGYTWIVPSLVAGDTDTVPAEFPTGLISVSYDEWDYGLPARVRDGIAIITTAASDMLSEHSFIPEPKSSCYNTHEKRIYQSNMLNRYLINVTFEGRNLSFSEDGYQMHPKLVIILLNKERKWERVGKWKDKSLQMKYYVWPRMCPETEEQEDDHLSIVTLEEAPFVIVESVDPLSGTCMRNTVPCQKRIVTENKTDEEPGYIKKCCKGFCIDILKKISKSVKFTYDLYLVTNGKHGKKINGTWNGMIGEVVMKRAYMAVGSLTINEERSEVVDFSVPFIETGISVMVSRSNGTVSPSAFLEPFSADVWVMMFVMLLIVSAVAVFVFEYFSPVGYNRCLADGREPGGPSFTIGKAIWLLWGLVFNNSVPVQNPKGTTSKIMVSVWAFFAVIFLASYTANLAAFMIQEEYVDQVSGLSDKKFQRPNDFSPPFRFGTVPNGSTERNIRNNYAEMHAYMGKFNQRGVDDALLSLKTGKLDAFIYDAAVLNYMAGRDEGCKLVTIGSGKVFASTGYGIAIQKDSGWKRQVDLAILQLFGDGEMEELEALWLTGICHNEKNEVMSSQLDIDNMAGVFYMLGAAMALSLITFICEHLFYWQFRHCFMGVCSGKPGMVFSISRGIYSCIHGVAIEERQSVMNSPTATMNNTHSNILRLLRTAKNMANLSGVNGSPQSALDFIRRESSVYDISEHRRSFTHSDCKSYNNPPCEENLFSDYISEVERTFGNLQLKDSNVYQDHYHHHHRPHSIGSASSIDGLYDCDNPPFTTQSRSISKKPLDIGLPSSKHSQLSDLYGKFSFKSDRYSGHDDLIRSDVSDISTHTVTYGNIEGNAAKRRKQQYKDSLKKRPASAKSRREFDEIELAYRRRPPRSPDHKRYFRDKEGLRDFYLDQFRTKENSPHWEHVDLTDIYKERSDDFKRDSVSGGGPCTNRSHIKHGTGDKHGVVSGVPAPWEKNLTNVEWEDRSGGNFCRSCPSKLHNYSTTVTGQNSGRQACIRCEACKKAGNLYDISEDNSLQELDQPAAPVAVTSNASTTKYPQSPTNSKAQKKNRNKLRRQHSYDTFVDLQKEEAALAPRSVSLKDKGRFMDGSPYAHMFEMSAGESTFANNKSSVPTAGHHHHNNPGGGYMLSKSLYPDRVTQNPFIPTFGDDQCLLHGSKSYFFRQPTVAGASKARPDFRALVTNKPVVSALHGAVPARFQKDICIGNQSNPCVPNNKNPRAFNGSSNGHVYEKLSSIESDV

IC50 [nM] | Structure (SMILES)
< 200 | O=c1ccc2cc(OCc3ccc(Nc4ccc(OC(F)F)cc4)nc3)ccc2[nH]1 [Example 3]
> 10000 | O=c1ccc2cc(OCc3ccc(NCc4ccc(OC(F)F)cc4)nc3)ccc2[nH]1 [Example 4]
< 200 | Oc1ccc(OCc2ccc(Nc3ccc(OC(F)F)cc3)nc2)cc1 [Example 10]
< 200 | O=c1ccc2cc(OCc3cnc(Nc4ccc(Cl)c(Cl)c4)nc3)ccc2[nH]1 [Example 20]
< 200 | O=c1ccc2cc(OCc3cnc(Nc4ccc(OC(F)F)cc4)nc3)ccc2[nH]1 [Example 22]
< 200 | O=c1ccc2cc(OCc3cnc(Nc4ccc(OC(F)(F)F)cc4)nc3)ccc2[nH]1 [Example 23]
< 200 | COc1ccc(Nc2ncc(COc3ccc4[nH]c(=O)ccc4c3)cn2)cc1 [Example 24]
< 200 | Cc1ccc(Nc2ncc(COc3ccc4[nH]c(=O)ccc4c3)cn2)cc1 [Example 25]

The next lines start with the compound.

Structure (SMILES) | IC50 [nM]
O=c1ccc2cc(OCc3ccc(NCc4ccc(Cl)cc4)nc3)ccc2[nH]1 [Example 1, 6-((6-(4-chlorobenzylamino)pyridin-3-yl)methoxy)quinolin-2(1H)-one] | < 200
O=c1ccc2cc(OCc3ccc(NCc4ccc(Cl)c(Cl)c4)nc3)ccc2[nH]1 [Example 2, 6-((6-(3,4-dichlorobenzylamino)pyridin-3-yl)methoxy)quinolin-2(1H)-one] | 1000 to 10000
O=c1ccc2cc(OCc3ccc(NCc4ccc(F)c(F)c4)nc3)ccc2[nH]1 [Example 5] | 201 to 1000
O=C1CCc2cc(OCc3ccc(Nc4ccc(OC(F)(F)F)cc4)nc3)cc(F)c2N1 [Example 6] | 1000 to 10000
O=c1ccc2cc(OCc3ccc(NCc4ccc(F)cc4)nc3)ccc2[nH]1 [Example 7] | < 200
O=c1ccc2cc(OCc3ccc(NCc4cccc(Cl)c4)nc3)ccc2[nH]1 [Example 8] | 1000 to 10000
O=c1ccc2cc(OCc3ccc(Nc4ccc(OC(F)(F)F)cc4)nc3)ccc2[nH]1 [Example 9] | < 200
O=c1ccc2cc(OCc3cccc(Nc4ccc(Cl)cc4)n3)ccc2[nH]1 [Example 11] | < 200
O=c1ccc2cc(OCc3cnc(NCc4ccc(Cl)cc4)nc3)ccc2[nH]1 [Example 19] | < 200
O=c1ccc2cc(OCc3cnc(NCc4ccc(Cl)c(Cl)c4)nc3)ccc2[nH]1 [Example 21] | > 10000

same assay, conditions: oocytes voltage clamped at −40 mV; 50 μM glutamate, 30 μM glycine; read-out: hNR2B IC50

IC50 [nM] | Structure (SMILES)
13 | Oc1ccc(OCc2ccc(Nc3ccc(OC(F)F)cc3)nc2)cc1 [Example 10]
394 | Oc1ccc(OCc2cnc(Nc3ccc(Cl)cc3)nc2)cc1 [Example 12, 4-((2-(4-chlorophenylamino)pyrimidin-5-yl)methoxy)phenol]
395 | Oc1ccc(OCc2cnc(Nc3ccc(Cl)c(Cl)c3)nc2)cc1 [Example 13, 4-((2-(3,4-dichlorophenylamino)pyrimidin-5-yl)methoxy)phenol]
64 | O=c1ccc2cc(OCc3cnc(Nc4ccc(Cl)cc4)nc3)ccc2[nH]1 [Example 14, 6-((2-(4-chlorophenylamino)pyrimidin-5-yl)methoxy)quinolin-2(1H)-one]
> 3000 | FC(F)(F)Oc1ccc(Nc2ncc(COc3ccc4[nH]nc(C(F)(F)F)c4c3)cn2)cc1 [Example 15, N-(4-(trifluoromethoxy)phenyl)-5-(((3-(trifluoromethyl)-1H-indazol-5-yl)oxy)methyl)pyrimidin-2-amine]
14 | O=c1[nH]c2ccc(OCc3cnc(Nc4ccc(OC(F)F)cc4)nc3)cc2o1 [Example 16, 6-((2-((4-(difluoromethoxy)phenyl)amino)pyrimidin-5-yl)methoxy)benzo[d]oxazol-2(3H)-one]
> 1000 | Nc1ncc(OCc2cnc(Nc3ccc(OC(F)F)cc3)nc2)cn1 [Example 17, 5-((2-aminopyrimidin-5-yloxy)methyl)-N-(4-(difluoromethoxy)phenyl)pyrimidin-2-amine]
5 | COc1nc(Nc2ccc(OC(F)F)cc2)ncc1COc1ccc2[nH]c(=O)ccc2c1 [Example 18, 6-((2-((4-(difluoromethoxy)phenyl)amino)-4-methoxypyrimidin-5-yl)methoxy)quinolin-2(1H)-one]
90 | COc1ccc(Nc2ncc(COc3ccc4[nH]c(=O)ccc4c3)cn2)cc1 [Example 24]
97 | Cc1ccc(Nc2ncc(COc3ccc4[nH]c(=O)ccc4c3)cn2)cc1 [Example 25]

Continued, compound first:

Structure (SMILES) | IC50 [nM]
O=c1ccc2cc(OCc3ccc(NCc4ccc(Cl)cc4)nc3)ccc2[nH]1 [Example 1, 6-((6-(4-chlorobenzylamino)pyridin-3-yl)methoxy)quinolin-2(1H)-one] | 87
O=c1ccc2cc(OCc3ccc(NCc4ccc(Cl)c(Cl)c4)nc3)ccc2[nH]1 [Example 2, 6-((6-(3,4-dichlorobenzylamino)pyridin-3-yl)methoxy)quinolin-2(1H)-one] | > 3000
